Data from US20230158049A1, “COMPOSITIONS AND METHODS FOR TREATING VIRUSES” (University of Virginia Patent Foundation, priority 2020, published 2023).

Assays:
[1] = biological target: 3C-like main protease (3CLpro) or Nsp5 (Severe acute respiratory syndrome coronavirus 2, UniProt P0DTD1); conditions: computational screening (Wu et al.); cited from earlier work
[2] = four patients, 100 mg twice daily or daily

Compound | retesting for SARS-CoV-2 (SARS-CoV-2; Example 2: after 3 weeks) | clinical course (fever, symptoms) (SARS-CoV-2; Example 2: person, pulmonary sarcoidosis, doxycycline 100 mg orally twice a day for 10 days) | repeat nasopharyngeal swab testing for SARS-CoV-2 RNA (SARS-CoV-2; Example 3: on 9 May 2020) | lung infiltrates on chest X-ray (SARS-CoV-2; Example 4: after 14 days of doxycycline therapy) | CRP (SARS-CoV-2; Example 4: by day 8 (CRP 13 by day 3, before doxycycline)) | supplemental oxygen requirement (SARS-CoV-2; Example 4: person, doxycycline 100 mg twice daily from hospital day 4, by day 8) | overall clinical outcome of the four patients (SARS-CoV-2; [2]) | progression to severe disease (SARS-CoV-2; [2]) | safety issues with use (SARS-CoV-2; four patients, standard doses for 5 to 14 days) | 3CLpro binding by computational screening [1] | clinical course on azithromycin before the switch to doxycycline (SARS-CoV-2; Example 4 (case 4): hospital days 1-3, with ceftriaxone)
C[C@H]1c2cccc(O)c2C(=O)C2=C(O)[C@]3(O)C(=O)C(C(N)=O)=C(O)[C@@H](N(C)C)[C@@H]3[C@@H](O)[C@@H]21 [doxycycline] | negative | Fever resolved and they remained asymptomatic | negative | resolved | 1.0 | no longer required oxygen | All improved | None progressed to severe disease | No safety issues were noted | can bind to 3CLpro | –
CC[C@H]1OC(=O)[C@H](C)[C@@H](O[C@H]2C[C@@](C)(OC)[C@@H](O)[C@H](C)O2)[C@H](C)[C@@H](O[C@@H]2O[C@H](C)C[C@H](N(C)C)[C@H]2O)[C@](C)(O)C[C@@H](C)CN(C)[C@H](C)[C@@H](O)[C@]1(C)O [azithromycin] | – | – | – | – | – | – | – | – | – | – | several days of worsening
